Measured values reported in paper PMC12696353, “Structural insights into endogenous agonist selectivity of aminergic receptors from the octopamine β2 receptor” (PNAS Nexus, 2025).
Changes are numbered by the printed parent chain. “Also recorded” adds a separate entry of the source. Like-named read-outs stand apart in the source and are kept apart here.

Legend:
[1] = biological target: I. scapularis octβ2R (is-octβ2R) (Ixodes scapularis, UniProt A0ACM8E5E8); experiment: cell-based; assay type: cell-based; conditions: for potency (EC50) relative to the other TDAs: order octopamine > tyramine > noradrenaline > dopamine
Description: (§1) The TGFα shedding assay was performed as previously described ([28]). […] The cells were transfected using lipofectamine 2000 with plasmids encoding alkaline phosphatase–tagged TGFα (AP-TGFα) (2.5 ng/mL), is-octβ2Rs (1 ng/mL), and Gαq/s (0.5 ng/mL). After 24 h, the cells were washed with phosphate-buffered saline and resuspended in Hank's balanced salt solution (HBSS) (supplemented with 5 mM HEPES [pH 7.4]). The cells (90 μL/well) were plated in a 96-well plate and incubated with 10 μL of HBSS solution containing various concentrations of compounds for 1 h at 37 °C. Following centrifugation (200 × g, 2 min), 80 μL of the supernatant was transferred to a separate 96-well plate. Subsequently, 80 µL of 2× para-nitrophenyl phosphate (pNPP) buffer (containing 10 mM pNPP in 40 mM Tris–HCl [pH 9.5], 40 mM NaCl, and 10 mM MgCl2) was added to both the supernatant and cell-containing plates. The optical density at 405 nm of both plates was measured before and after a 1 h incubation at room temperature using a microplate reader (SpectraMax iD3, Molecular Devices, San Jose, CA, United States). AP-TGFα release was calculated using the following formulas:
(§2) ΔOD405=OD450(1h)−OD405(0h)AP−TGFαinsupernatant(%)=(ΔOD405Sup/[ΔOD450Sup+ΔOD405Cell])×125AP−TGFαrelease(%)=AP−TGFαinsupernatantunderastimulatedcondition(%)−AP−TGFαinsupernatantunderavehicle−treatedcondition
(§3) where OD405 (0 h) and […] represent the OD405 before and after a 1 h incubation, respectively, and OD405Sup and OD405Cell represent the OD405 of supernatant and cell plates, respectively. For all pharmacological analyses, nonlinear regression curve fitting was performed with a 3-parameter sigmoid model (Hill coefficient = 1) using Prism 8 (GraphPad Software, La Jolla, CA, United States).

[2] = biological target: T1, is-octβ2R T60^1.41P mutant (Ixodes scapularis, UniProt A0ACM8E5E8); experiment: TGFα shedding assay, amitraz-resistant mutant T60^1.41P; assay type: cell-based; conditions: Table S4
T1 sequence (A0ACM8E5E8 1-384 T39P): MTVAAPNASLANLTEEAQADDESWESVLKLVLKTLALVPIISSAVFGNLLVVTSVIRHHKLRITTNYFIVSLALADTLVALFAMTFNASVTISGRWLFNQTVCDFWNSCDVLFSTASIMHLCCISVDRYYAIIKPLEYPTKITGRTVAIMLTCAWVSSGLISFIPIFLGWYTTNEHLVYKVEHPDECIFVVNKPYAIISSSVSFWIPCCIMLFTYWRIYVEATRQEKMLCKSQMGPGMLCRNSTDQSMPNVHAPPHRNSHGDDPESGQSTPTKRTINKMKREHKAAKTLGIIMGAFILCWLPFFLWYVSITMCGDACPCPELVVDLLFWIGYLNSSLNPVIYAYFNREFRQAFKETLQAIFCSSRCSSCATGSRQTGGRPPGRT
Description: as §1, §2, §3

[3] = biological target: T2, is-octβ2R I61^1.42F mutant (Ixodes scapularis, UniProt A0ACM8E5E8, I40F); experiment: TGFα shedding assay, amitraz-resistant mutant I61^1.42F; assay type: cell-based; conditions: Table S4
T2 sequence (A0ACM8E5E8 1-384 I40F): T1 sequence (A0ACM8E5E8 1-384 T39P) with P39T, I40F
Description: as §1, §2, §3

[4] = biological target: T3, is-octβ2R I62^1.43T mutant (Ixodes scapularis, UniProt A0ACM8E5E8, I41T); experiment: TGFα shedding assay, amitraz-resistant mutant I62^1.43T; assay type: cell-based; conditions: Table S4
T3 sequence (A0ACM8E5E8 1-384 I41T): T1 sequence (A0ACM8E5E8 1-384 T39P) with P39T, I41T
Description: as §1, §2, §3

[5] = biological target: T4, is-octβ2R Y67^2.41S mutant (Ixodes scapularis, UniProt A0ACM8E5E8, Y67S); experiment: TGFα shedding assay, amitraz-resistant mutant Y67^2.41S; assay type: cell-based; conditions: Table S4
T4 sequence (A0ACM8E5E8 1-384 Y67S): T1 sequence (A0ACM8E5E8 1-384 T39P) with P39T, Y67S
Description: as §1, §2, §3

[6] = biological target: T5, is-octβ2R N87^2.61S mutant (Ixodes scapularis, UniProt A0ACM8E5E8, N87S); experiment: TGFα shedding assay, amitraz-resistant mutant N87^2.61S; assay type: cell-based; conditions: Table S4
T5 sequence (A0ACM8E5E8 1-384 N87S): T1 sequence (A0ACM8E5E8 1-384 T39P) with P39T, N87S
Description: as §1, §2, §3

[7] = biological target: T6, is-octβ2R Y215^5.58H mutant (Ixodes scapularis, UniProt A0ACM8E5E8, Y215H); experiment: TGFα shedding assay, amitraz-resistant mutant Y215^5.58H; assay type: cell-based
T6 sequence (A0ACM8E5E8 1-384 Y215H): T1 sequence (A0ACM8E5E8 1-384 T39P) with P39T, Y215H
Description: as §1, §2, §3

[8] = system: is-octβ2R Y215^5.58H mutant; experiment: as above; assay type: cell-based, Ixodes scapularis; conditions: versus wild type
Description: as §1, §2, §3

[9] = HEK293, 1 h, Table S2, wild type, AP-TGFα release, HEK293 cells, mean ± SEM, n = 3
[10] = logEC50, Table S2, wild type, HEK293 cells, mean ± SEM, n = 3
[11] = Table S2, wild type, HEK293 cells, mean ± SEM, n = 3

## NC[C@H](O)c1ccc(O)c(O)c1 [Noradrenaline, noradrenaline]
[1]; [9]
  Emax: 32 ± 13.1%
[1]; [10]
  EC50: 10000 nM
[1]; wild type
  potency (EC50) relative to the other TDAs: significantly weaker affinities

## Cc1ccc(NC=O)c(C)c1 [DMF, N-(2,4-dimethylphenyl)formamide]
[1]; [11]
  logEC50: no activity
[1]; wild type
  agonistic activity: no agonistic activity

## NCCc1ccc(O)cc1 [Tyramine, tyramine]
[1]
  EC50: 1580 nM
[1]; HEK293, 1 h
  Emax: 25 ± 1.7%
[1]; wild type
  potency (EC50) relative to the other TDAs: weaker potency

## Cc1ccc(N)c(C)c1 [2′,4′-dimethylaniline]
[1]; wild type
  agonistic activity: no agonist activity

## CNC[C@H](O)c1ccc(O)c(O)c1 [Adrenaline, adrenaline]
[1]
  EC50: 3160 nM
[1]; HEK293, 1 h
  Emax: 20 ± 2.1%

## NCCc1ccc(O)c(O)c1 [Dopamine, dopamine]
[1]; [11]
  logEC50: signal observed only at 10-5 M
[1]; wild type
  potency (EC50) relative to the other TDAs: significantly weaker affinities; also recorded: lowest potency

## Cc1ccc(/N=C/N(C)/C=N/c2ccc(C)cc2C)c(C)c1 [Amitraz]
[1]; 1 h, Table S4, WT, AP-TGFα release
  Emax: 17 ± 1%
[1]; [9]
  Emax: 26 ± 0.9%
[1]; LogEC50, Table S4, WT
  EC50: 31.6 nM
[1]; [10]
  EC50: 126 nM
[2]
  EC50: 31.6 nM
[3]
  EC50: 63.1 nM
[4]
  EC50: 15.8 nM
[5]
  EC50: 63.1 nM
[6]
  EC50: 50.1 nM
[7]
  EC50: 63.1 nM
[8]
  reduction of maximal response (Emax) by the Y215^5.58H mutation: ~50%
